From patent US10448639B2, “Fungicidal pyrazoles” (FMC CORPORATION, priority 2009, dated 2019)

Test system: Alternaria solani
Assay: Test C: tomato early blight, preventive spray on tomato seedlings, visual disease rating
Conditions: tomato early blight, preventive spray; 100 = 100% disease control, 0 = no control
Description: General protocol for preparing test suspensions for Tests A-J: the test compounds were first dissolved in acetone in an amount equal to 3% of the final volume and then suspended at the desired concentration (in ppm) in acetone and purified water (50/50 mix by volume) containing 250 ppm of the surfactant Trem® 014 (polyhydric alcohol esters). The resulting test suspensions were then used in Tests A-J. Spraying a 200 ppm test suspension to the point of run-off on the test plants was the equivalent of a rate of 500 g/ha. Unless otherwise indicated, the rating values indicate a 200 ppm test suspension was used. (An asterisk “*” next to the rating value indicates a 40 ppm test suspension was used.)
The test suspension was sprayed to the point of run-off on tomato seedlings. The following day the seedlings were inoculated with a spore suspension of Alternaria solani (the causal agent of tomato early blight) and incubated in a saturated atmosphere at 27° C. for 48 h, and then moved to a growth chamber at 20° C. for 5 days, after which time visual disease ratings were made.

Row | Structure (SMILES) | Test C rating (% disease control) [%]
1 | COc1ccc(-c2c(C)nn(C)c2Oc2c(F)cc(C#N)cc2F)c(F)c1 [compound 46] | 100

Same assay, conditions: tomato early blight; 100 = 100% disease control, 0 = no control relative to controls

Row | Structure (SMILES) | Test C rating (% disease control) [%]
2 | Cc1nn(C)c(Oc2c(F)cc(C#N)cc2F)c1-c1ccccc1Cl [compound 271] | 99
3 | Cc1ccc(Oc2c(-c3c(F)cc(F)cc3F)c(C)nn2C)cc1C#N [compound 250] | 0
4 | COc1cc(F)c(-c2c(C)nn(C)c2C(O)c2ccc(F)cc2F)c(F)c1 (centres unmarked) [compound 208] | 100
5 | COc1ccc(F)c(Nc2c(-c3c(F)cccc3F)c(C)nn2C)c1 [compound 216] | 0
6 | COc1ccc(F)c(-c2c(C)nn(C)c2Oc2c(F)cc(C#N)cc2F)c1 [compound 278] | 0
7 | COc1ccc(Cl)c(-c2c(C)nn(C)c2Oc2c(F)cc(C#N)cc2F)c1 [compound 277] | 0

Same assay, conditions: tomato early blight; 100 = 100% disease control, 0 = no disease control relative to controls

Row | Structure (SMILES) | Test C disease control rating [%]
8 | Cc1nn(C)c(Nc2ccc([N+](=O)[O-])cc2F)c1-c1ccc(F)cc1Cl [compound 344] | 40

Test system: Septoria tritici
Assay: Test G: wheat leaf blotch, preventive spray on wheat seedlings, visual disease rating
Conditions: wheat leaf blotch, preventive spray; 100 = 100% disease control, 0 = no control

Row | Structure (SMILES) | Test G rating (% disease control) [%]
9 | COc1ccc(-c2c(C)nn(C)c2Oc2c(F)cc(C#N)cc2F)c(F)c1 [compound 46] | 100

Same assay, conditions: wheat leaf blotch, sprayed the day before inoculation; 100 = 100% disease control, 0 = no disease control relative to controls

Row | Structure (SMILES) | Test G disease control rating [%]
10 | Cc1nn(C)c(Nc2ccc([N+](=O)[O-])cc2F)c1-c1ccc(F)cc1Cl [compound 344] | 100

Same assay, conditions: wheat leaf blotch; 100 = 100% disease control, 0 = no control relative to controls

Row | Structure (SMILES) | Test G rating (% disease control) [%]
11 | Cc1nn(C)c(Oc2c(F)cc(C#N)cc2F)c1-c1ccccc1Cl [compound 271] | 100
12 | Cc1ccc(Oc2c(-c3c(F)cc(F)cc3F)c(C)nn2C)cc1C#N [compound 250] | 77
13 | COc1cc(F)c(-c2c(C)nn(C)c2C(O)c2ccc(F)cc2F)c(F)c1 (centres unmarked) [compound 208] | 100
14 | COc1ccc(F)c(Nc2c(-c3c(F)cccc3F)c(C)nn2C)c1 [compound 216] | 76
15 | COc1ccc(F)c(-c2c(C)nn(C)c2Oc2c(F)cc(C#N)cc2F)c1 [compound 278] | 99
16 | COc1ccc(Cl)c(-c2c(C)nn(C)c2Oc2c(F)cc(C#N)cc2F)c1 [compound 277] | 100

Test system: Erysiphe graminis f sp. tritici
Assay: Test J: wheat powdery mildew, preventive spray on wheat seedlings, visual disease rating
Conditions: wheat powdery mildew, preventive spray; 100 = 100% disease control, 0 = no control

Row | Structure (SMILES) | Test J rating (% disease control) [%]
17 | COc1ccc(-c2c(C)nn(C)c2Oc2c(F)cc(C#N)cc2F)c(F)c1 [compound 46] | 99

Same assay, conditions: wheat powdery mildew, sprayed the day before inoculation; 100 = 100% disease control, 0 = no disease control relative to controls

Row | Structure (SMILES) | Test J disease control rating [%]
18 | Cc1nn(C)c(Nc2ccc([N+](=O)[O-])cc2F)c1-c1ccc(F)cc1Cl [compound 344] | 100

Same assay, conditions: wheat powdery mildew; 100 = 100% disease control, 0 = no control relative to controls

Row | Structure (SMILES) | Test J rating (% disease control) [%]
19 | Cc1nn(C)c(Oc2c(F)cc(C#N)cc2F)c1-c1ccccc1Cl [compound 271] | 98
20 | Cc1ccc(Oc2c(-c3c(F)cc(F)cc3F)c(C)nn2C)cc1C#N [compound 250] | 100
21 | COc1cc(F)c(-c2c(C)nn(C)c2C(O)c2ccc(F)cc2F)c(F)c1 (centres unmarked) [compound 208] | 99
22 | COc1ccc(F)c(Nc2c(-c3c(F)cccc3F)c(C)nn2C)c1 [compound 216] | 99
23 | COc1ccc(F)c(-c2c(C)nn(C)c2Oc2c(F)cc(C#N)cc2F)c1 [compound 278] | 100
24 | COc1ccc(Cl)c(-c2c(C)nn(C)c2Oc2c(F)cc(C#N)cc2F)c1 [compound 277] | 98

Test system: Septoria nodorum
Assay: Test F: Septoria glume blotch, preventive spray on wheat seedlings, visual disease rating
Conditions: Septoria glume blotch on wheat, preventive spray; 100 = 100% disease control, 0 = no control

Row | Structure (SMILES) | Test F rating (% disease control) [%]
25 | COc1ccc(-c2c(C)nn(C)c2Oc2c(F)cc(C#N)cc2F)c(F)c1 [compound 46] | 99

Same assay, conditions: Septoria glume blotch on wheat; 100 = 100% disease control, 0 = no disease control relative to controls

Row | Structure (SMILES) | Test F disease control rating [%]
26 | Cc1nn(C)c(Nc2ccc([N+](=O)[O-])cc2F)c1-c1ccc(F)cc1Cl [compound 344] | 87

Same assay, conditions: Septoria glume blotch; 100 = 100% disease control, 0 = no control relative to controls

Row | Structure (SMILES) | Test F rating (% disease control) [%]
27 | Cc1nn(C)c(Oc2c(F)cc(C#N)cc2F)c1-c1ccccc1Cl [compound 271] | 99
28 | Cc1ccc(Oc2c(-c3c(F)cc(F)cc3F)c(C)nn2C)cc1C#N [compound 250] | 0
29 | COc1cc(F)c(-c2c(C)nn(C)c2C(O)c2ccc(F)cc2F)c(F)c1 (centres unmarked) [compound 208] | 99
30 | COc1ccc(F)c(Nc2c(-c3c(F)cccc3F)c(C)nn2C)c1 [compound 216] | 0
31 | COc1ccc(F)c(-c2c(C)nn(C)c2Oc2c(F)cc(C#N)cc2F)c1 [compound 278] | 0
32 | COc1ccc(Cl)c(-c2c(C)nn(C)c2Oc2c(F)cc(C#N)cc2F)c1 [compound 277] | 0

Test system: Puccinia recondita f. sp. tritici
Assay: Test H: wheat leaf rust, curative spray on inoculated wheat seedlings, visual disease rating
Conditions: wheat leaf rust, curative spray; 100 = 100% disease control, 0 = no control

Row | Structure (SMILES) | Test H rating (% disease control) [%]
33 | COc1ccc(-c2c(C)nn(C)c2Oc2c(F)cc(C#N)cc2F)c(F)c1 [compound 46] | 37

Same assay, conditions: wheat leaf rust, curative; 100 = 100% disease control, 0 = no control relative to controls

Row | Structure (SMILES) | Test H rating (% disease control) [%]
34 | Cc1nn(C)c(Oc2c(F)cc(C#N)cc2F)c1-c1ccccc1Cl [compound 271] | 0
35 | Cc1ccc(Oc2c(-c3c(F)cc(F)cc3F)c(C)nn2C)cc1C#N [compound 250] | 0
36 | COc1cc(F)c(-c2c(C)nn(C)c2C(O)c2ccc(F)cc2F)c(F)c1 (centres unmarked) [compound 208] | 0
37 | COc1ccc(F)c(Nc2c(-c3c(F)cccc3F)c(C)nn2C)c1 [compound 216] | 0
38 | COc1ccc(F)c(-c2c(C)nn(C)c2Oc2c(F)cc(C#N)cc2F)c1 [compound 278] | 0
39 | COc1ccc(Cl)c(-c2c(C)nn(C)c2Oc2c(F)cc(C#N)cc2F)c1 [compound 277] | 0

Same assay, conditions: wheat leaf rust, sprayed after inoculation; 100 = 100% disease control, 0 = no disease control relative to controls

Row | Structure (SMILES) | Test H disease control rating [%]
40 | Cc1nn(C)c(Nc2ccc([N+](=O)[O-])cc2F)c1-c1ccc(F)cc1Cl [compound 344] | 62

Test system: Puccinia recondita f. sp. tritici
Assay: Test I: wheat leaf rust, preventive spray on wheat seedlings, visual disease rating
Conditions: wheat leaf rust, preventive spray; 100 = 100% disease control, 0 = no control

Row | Structure (SMILES) | Test I rating (% disease control) [%]
41 | COc1ccc(-c2c(C)nn(C)c2Oc2c(F)cc(C#N)cc2F)c(F)c1 [compound 46] | 100

Same assay, conditions: wheat leaf rust, preventive; 100 = 100% disease control, 0 = no control relative to controls

Row | Structure (SMILES) | Test I rating (% disease control) [%]
42 | Cc1nn(C)c(Oc2c(F)cc(C#N)cc2F)c1-c1ccccc1Cl [compound 271] | 99
43 | Cc1ccc(Oc2c(-c3c(F)cc(F)cc3F)c(C)nn2C)cc1C#N [compound 250] | 86
44 | COc1cc(F)c(-c2c(C)nn(C)c2C(O)c2ccc(F)cc2F)c(F)c1 (centres unmarked) [compound 208] | 99
45 | COc1ccc(F)c(Nc2c(-c3c(F)cccc3F)c(C)nn2C)c1 [compound 216] | 26
46 | COc1ccc(F)c(-c2c(C)nn(C)c2Oc2c(F)cc(C#N)cc2F)c1 [compound 278] | 82
47 | COc1ccc(Cl)c(-c2c(C)nn(C)c2Oc2c(F)cc(C#N)cc2F)c1 [compound 277] | 96

Same assay, conditions: wheat leaf rust, sprayed the day before inoculation; 100 = 100% disease control, 0 = no disease control relative to controls

Row | Structure (SMILES) | Test I disease control rating [%]
48 | Cc1nn(C)c(Nc2ccc([N+](=O)[O-])cc2F)c1-c1ccc(F)cc1Cl [compound 344] | 100

Test system: Botrytis cinerea
Assay: Test B: tomato Botrytis, preventive spray on tomato seedlings, visual disease rating
Conditions: tomato Botrytis, preventive spray; 100 = 100% disease control, 0 = no control

Row | Structure (SMILES) | Test B rating (% disease control) [%]
49 | COc1ccc(-c2c(C)nn(C)c2Oc2c(F)cc(C#N)cc2F)c(F)c1 [compound 46] | 99

Same assay, conditions: tomato Botrytis; 100 = 100% disease control, 0 = no control relative to controls

Row | Structure (SMILES) | Test B rating (% disease control) [%]
50 | Cc1nn(C)c(Oc2c(F)cc(C#N)cc2F)c1-c1ccccc1Cl [compound 271] | 100
51 | Cc1ccc(Oc2c(-c3c(F)cc(F)cc3F)c(C)nn2C)cc1C#N [compound 250] | 98
52 | COc1cc(F)c(-c2c(C)nn(C)c2C(O)c2ccc(F)cc2F)c(F)c1 (centres unmarked) [compound 208] | 100
53 | COc1ccc(F)c(Nc2c(-c3c(F)cccc3F)c(C)nn2C)c1 [compound 216] | 96
54 | COc1ccc(F)c(-c2c(C)nn(C)c2Oc2c(F)cc(C#N)cc2F)c1 [compound 278] | 99
55 | COc1ccc(Cl)c(-c2c(C)nn(C)c2Oc2c(F)cc(C#N)cc2F)c1 [compound 277] | 100

Same assay, conditions: tomato Botrytis; 100 = 100% disease control, 0 = no disease control relative to controls

Row | Structure (SMILES) | Test B disease control rating [%]
56 | Cc1nn(C)c(Nc2ccc([N+](=O)[O-])cc2F)c1-c1ccc(F)cc1Cl [compound 344] | 100
